The source made the active and inactive calls. The calls are words filed in the database; no cut-off is given here.

One experiment deals with HeLa. As to the kind of experiment: Cytotoxicity against human HeLa cells up to 200 uM after 48 hrs by MTT assay. For orientation: Tetrazolium dyes change colour on reduction, which living cells bring about.
Experiment [1] concerns the target Human immunodeficiency virus type 1 reverse transcriptase (Human immunodeficiency virus 1, UniProt Q72547). As to the kind of experiment: Inhibition of HIV1 reverse transcriptase activity after 1 hr by ELISA.

On to `O=c1ccn([C@@H]2O[C@H](CNCc3ccc(Cl)cc3)[C@@H](O)[C@H]2O)c(=O)[nH]1`, for which the outcome with HeLa was inactive. In addition, the IC50 (as a rule, the concentration at which inhibition is half-maximal) in experiment [1] was found to be 2.82 µM.

In the case of `O=c1ccn([C@@H]2O[C@H](CNCc3c(Cl)cccc3Cl)[C@@H](O)[C@H]2O)c(=O)[nH]1`, in the experiment on HeLa, the result was inactive. In experiment [1], this compound gave an IC50 of 4.72 µM.

Turning to `O=c1ccn([C@@H]2O[C@H](CNCc3ccccc3Cl)[C@@H](O)[C@H]2O)c(=O)[nH]1`, the result in the experiment with HeLa was inactive. This compound also had a concentration for half-maximal inhibition (IC50) in experiment [1] of 6.13 µM.

For `O=c1[nH]c(=O)n([C@@H]2O[C@H](CNCc3ccccc3Cl)[C@@H](O)[C@H]2O)cc1F`, in the experiment with HeLa, the outcome was inactive. This compound also showed an IC50 in experiment [1] of 3.53 µM.

As to `O=c1[nH]c(=O)n([C@@H]2O[C@H](CNCc3c(Cl)cccc3Cl)[C@@H](O)[C@H]2O)cc1F`, the outcome in the experiment with HeLa was inactive. In experiment [1], this compound yielded a concentration for half-maximal inhibition (IC50) of 4.84 µM.

As for `O=c1[nH]c(=O)n([C@@H]2O[C@H](CNCc3c(F)cccc3Cl)[C@@H](O)[C@H]2O)cc1F`, the outcome with HeLa was inactive. Also, the midpoint of inhibition in experiment [1], the IC50, lay at 3.9 µM.

`O=c1ccn([C@@H]2O[C@H](CNCc3c(F)cccc3Cl)[C@@H](O)[C@H]2O)c(=O)[nH]1`: the result in the experiment on HeLa was inactive. In experiment [1], the IC50 was 4.99 µM.

Take `O=c1[nH]c(=O)n([C@@H]2O[C@H](CNCc3ccc(Cl)cc3)[C@@H](O)[C@H]2O)cc1F`: the result in the experiment on HeLa was inactive. Further, the IC50 in experiment [1] came to 3.75 µM.

(Values after ChEMBL document CHEMBL1641424, “Synthesis and biological activity of novel 5'-arylamino-nucleosides by microwave-assisted one-pot tandem Staudinger/aza-Wittig/reduction” (Bioorg Med Chem Lett, 2011).)
